Source: ChEMBL document CHEMBL3046384, “Pharmacophore modeling and structure-based virtual screening for a novel switch region target of bacterial RNA polymerase” (Med Chem Res, 2012)

Assay: Inhibition of RNA polymerase of Bacteria
In the case of `C/C=C/C/C=C(\C)C(O)CC/C(C)=C/C=C(\C)C(=O)c1c(O)cc([C@H](C)CC/C=C/NC(=O)OC)oc1=O` (stereo partly drawn) [CORALLOPYRONIN A], the IC50 is reported as 4000 nM. With `CCC/C(C)=C/C=C(\C)C(=O)c1c(O)cc([C@H](C)CC/C=C/NC(=O)OC)oc1=O` [MYXOPORIN A] the IC50 was 1000 nM. Work on `C/C(=C\Cc1ccccc1)CCC(=O)C[C@H]1C[C@H](O)C/C(C)=C/C/C=C/C/C(CC(=O)O)=C\C(=O)O1` [RIPOSTATIN] yielded an IC50 of 800 nM.
